Article PMC3651882 (Bioconjugate chemistry, 2013)

Tests used:
Type in all cases: cell-based, human
[1] = test system: KB-3-1 cells; assay: Cytotoxicity, SRB method; details: 50 NM as printed, 2 h incubation
[2] = test system: KB-3-1 cells; assay: Subcellular colocalization, confocal microscopy; details: 15 μM, 2 h, Lysotracker Green, Hoechst 33342
[3] = test system: KB-V1 cells; assay: Cellular uptake by flow cytometry; details: for Time dependence of cell fluorescence intensity (in words): 5 μM, 1, 2 and 4 h
[4] = test system: KB-V1 cells; assay: Subcellular colocalization, confocal microscopy; details: 15 μM, 2 h, Lysotracker Green, Hoechst 33342
[5] = test system: KB-3-1 cells; assay: Cellular uptake by flow cytometry; details: 2.5-15 μM, 2 h
[6] = test system: KB-V1 cells; assay: Cytotoxicity, SRB method; details: 50 μM, 2 h incubation

SMILES | Cytotoxicity (in words) [1] | Subcellular location (in words) [2] | Time dependence of cell fluorescence intensity (in words) [3] | Cellular uptake (in words) ([3]; 2.5-15 μM, 2 h) | Subcellular location (in words) [4] | Cellular uptake (in words) [5] | Cytotoxicity (in words) [6] | Cells killed (cell death) ([6]; then 46 h fresh medium, SRB)
COc1cccc2c1C(=O)c1c(O)c3c(c(O)c1C2=O)C[C@@](O)(C(=O)CO)C[C@@H]3O[C@H]1C[C@H](N)[C@H](O)[C@H](C)O1 [Dox, doxorubicin] | nearly all the cells were killed | no preference to accumulate in any subcellular organelles | did not change with time | greatly inhibited | dim red fluorescence was observed only on the membrane | very efficient | no significant cytotoxicity | 14%
O=C(O)c1ccc2c(c1)C(=O)OC21c2ccc(O)cc2Oc2cc(O)ccc21 [5-FAM, 5-carboxyfluorescein] | – | – | did not change with time | – | – | – | – | –
